Results from US10882856B2 (BeiGene, Ltd., priority 2017, dated 2021).

Legend:
[1] = target: T1, TDO (Homo sapiens, UniProt P48775); experiment: TDO enzymatic assay; format: biochemical; details: read-out: Enzyme IC50 TDO
T1 construct: His tag (C); made in house; host or cells: E. coli
Outline: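 Recombinant C-terminally His-tagged TDO purified from E. coli (100 nM) was tested with 0.5 mM L-tryptophan (Km concentration). Otherwise the IDO1 enzymatic set-up was used: ascorbic acid, methylene blue, catalase, and potassium phosphate pH 7.5 with BSA, incubated 1.5 hours. N'-formylkynurenine absorbance was read continuously at 321 nm, and activity was taken as the slope. IC50 was calculated from remaining enzyme activity across increasing compound concentrations.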

[2] = target: T2, cellular TDO2 in HEK293-TDO2 cells (Homo sapiens, UniProt P48775); experiment: 293-TDO2 cell-based assay (Kyn colorimetric); details: 48 hours of incubation
T2 construct: expressed in transfected cells; host or cells: HEK293 (ATCC), stably transfected
T2 sequence (P48775 whole entry): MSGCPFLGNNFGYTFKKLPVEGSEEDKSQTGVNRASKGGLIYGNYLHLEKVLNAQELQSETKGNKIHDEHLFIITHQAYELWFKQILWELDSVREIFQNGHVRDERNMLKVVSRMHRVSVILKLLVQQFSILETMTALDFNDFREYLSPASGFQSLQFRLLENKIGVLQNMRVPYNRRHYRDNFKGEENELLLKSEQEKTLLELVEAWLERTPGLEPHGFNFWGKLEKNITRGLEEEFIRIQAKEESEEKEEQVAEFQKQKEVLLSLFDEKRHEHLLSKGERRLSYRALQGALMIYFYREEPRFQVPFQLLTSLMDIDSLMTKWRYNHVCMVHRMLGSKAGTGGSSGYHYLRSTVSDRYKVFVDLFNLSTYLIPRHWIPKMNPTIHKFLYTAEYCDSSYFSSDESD
Outline: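 HEK293 cells stably expressing TDO2 (10000/well, phenol red-free DMEM, 10% FBS) were dosed 4 h after plating and incubated 48 h at 37° C. Supernatant Kyn was measured after TCA precipitation by 4-(dimethylamino)benzaldehyde colour at 480 nm. IC50 came from four-parameter logistic fits.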

[3] = target: T3, IDO1 (Homo sapiens, UniProt P14902); experiment: Hela cell-based IDO1 assay; details: Hela cells
T3 sequence (P14902 whole entry): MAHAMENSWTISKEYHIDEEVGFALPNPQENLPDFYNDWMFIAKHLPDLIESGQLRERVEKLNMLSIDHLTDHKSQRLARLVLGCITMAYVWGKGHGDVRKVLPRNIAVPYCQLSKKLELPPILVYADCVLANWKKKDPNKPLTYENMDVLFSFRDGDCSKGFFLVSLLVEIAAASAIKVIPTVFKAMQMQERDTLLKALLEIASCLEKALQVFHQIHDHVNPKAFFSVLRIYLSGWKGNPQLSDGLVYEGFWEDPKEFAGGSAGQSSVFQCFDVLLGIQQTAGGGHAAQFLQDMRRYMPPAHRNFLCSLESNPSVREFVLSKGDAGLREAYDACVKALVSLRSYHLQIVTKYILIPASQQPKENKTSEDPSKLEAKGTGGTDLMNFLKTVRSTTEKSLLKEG
Outline: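 HeLa cells were plated at 8000 per well in 96-well plates containing phenol red-free DMEM with 10% FBS, and after 4 hours compound dilutions made in DMSO were added together with IFN-γ (final 100 ng/mL) and 0.4 mM L-Trp before 48 hours at 37 °C, 5% CO2. Supernatants were deproteinised with trichloroacetic acid, mixed with 2% 4-(dimethylamino)benzaldehyde and read at 480 nm for kynurenine. Four-parameter logistic fits were run in XLfit. Potency was derived from these fits.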

[4] = target: T3, IDO1; experiment: IDO1 enzymatic assay; format: biochemical; set-up: His tag (N); made in house; host or cells: E. coli; details: read-out: Enzyme IC50 IDO1
Outline: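 Recombinant IDO1 carrying an N-terminal His tag and purified from E. coli was used at 50 nM with test compound, 1.3 mM D-tryptophan, 5 mM L-ascorbic acid, methylene blue and 0.4 mg/mL catalase in 50 mM potassium phosphate pH 7.5 containing 0.1% BSA. This mixture was incubated at 24 °C for 1.5 hours, after which N'-formylkynurenine formation was followed continuously at 321 nm for 1 hour and activity was taken as the slope. IC50 was derived from the enzyme activity remaining as compound concentration increased.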

T1 sequence (P48775 whole entry): as the sequence (P48775 whole entry) above

SMILES	IC50 [1]	EC50 [2]	EC50 [3]	IC50 [4]
O[C@H](c1c(C2CC2)ccn2cncc12)[C@H]1CC[C@H](c2ccccc2F)CC1 (single isomer, unassigned) [Example C108a]	5100 nM	> 10000 nM	112 nM	28 nM
O[C@H](c1c(C2CC2)ccn2cncc12)[C@H]1CC[C@H](c2cccc(F)c2)CC1 (single isomer, unassigned) [Example C109a]	8500 nM	> 10000 nM	49 nM	43 nM
Cc1ccc([C@H]2CC[C@H]([C@H](O)c3c(C4CC4)ccn4cncc34)CC2)cc1 (single isomer, unassigned) [Example C110a]	21000 nM	> 10000 nM	283 nM	35 nM
Cc1cccc([C@H]2CC[C@H]([C@H](O)c3c(C4CC4)ccn4cncc34)CC2)c1 (single isomer, unassigned) [Example C111a]	8000 nM	> 10000 nM	131 nM	28 nM
Cc1ccccc1[C@H]1CC[C@H]([C@H](O)c2c(C3CC3)ccn3cncc23)CC1 (single isomer, unassigned) [Example C112a]	5100 nM	> 10000 nM	183 nM	40 nM
COc1ccccc1[C@H]1CC[C@H]([C@H](O)c2c(C3CC3)ccn3cncc23)CC1 (single isomer, unassigned) [Example C113a]	5700 nM	> 10000 nM	89 nM	28 nM
COc1cccc([C@H]2CC[C@H]([C@H](O)c3c(C4CC4)ccn4cncc34)CC2)c1 (single isomer, unassigned) [Example C114a]	8300 nM	> 10000 nM	180 nM	27 nM
O[C@H](c1c(C2CC2)ccn2cncc12)[C@H]1CC[C@H](c2ccc(C(F)(F)F)cc2)CC1 (single isomer, unassigned) [Example C115a]	11000 nM	> 10000 nM	2400 nM	67 nM
O[C@H](c1c(C2CC2)ccn2cncc12)[C@H]1CC[C@H](c2ccccc2C(F)(F)F)CC1 (single isomer, unassigned) [Example C116a]	6300 nM	> 10000 nM	500 nM	77 nM
O[C@H](c1c(C2CC2)ccn2cncc12)[C@H]1CC[C@H](c2ccc(OC3COC3)cc2)CC1 (single isomer, unassigned) [Example C117a]	3400 nM	> 10000 nM	131 nM	15 nM
O[C@H](c1c(C2CC2)ccn2cncc12)[C@H]1CC[C@H](c2ccc(OC3CCCC3)cc2)CC1 (single isomer, unassigned) [Example C118a]	6200 nM	> 10000 nM	147 nM	63 nM
O[C@H](c1c(C2CC2)ccn2cncc12)[C@H]1CC[C@H](c2ccc(C(F)(F)F)nc2)CC1 (single isomer, unassigned) [Example C120a]	7400 nM	> 10000 nM	1100 nM	39 nM
O[C@H](c1c(C2CC2)ccn2cncc12)[C@H]1CC[C@H](c2cccc3ccccc32)CC1 (single isomer, unassigned) [Example C121a]	3600 nM	> 10000 nM	59 nM	39 nM
O[C@H](c1c(C2CC2)ccc2cncn12)[C@H]1CC[C@H](c2ccccc2)CC1 (single isomer, unassigned) [Example D101a]	9200 nM	> 10000 nM	35 nM	14 nM
COc1ccc([C@H]2CC[C@H]([C@H](O)c3c(C4CC4)ccc4cncn34)CC2)cc1 (single isomer, unassigned) [Example D102a]	5300 nM	> 10000 nM	29 nM	14 nM
O[C@H](c1c(C2CC2)ccc2cncn12)[C@H]1CC[C@H](c2ccc(F)cc2)CC1 (single isomer, unassigned) [Example D104a]	7500 nM	> 10000 nM	23 nM	18 nM
O[C@H](c1c(C2CC2)ccc2cncn12)[C@H]1CC[C@H](c2ccc(OC(F)(F)F)cc2)CC1 (single isomer, unassigned) [Example D105a]	11000 nM	> 10000 nM	631 nM	44 nM

SMILES	IC50 [1]	EC50 [2]	EC50 [3]	IC50 [4]
Oc1ccc([C@H]2CC[C@H](C(O)c3c(C4CC4)ccc4cncn34)CC2)cc1 (single isomer, unassigned) [Example D106a]	4000 nM	> 10000 nM	21 nM	11 nM
N#Cc1ccc([C@H]2CC[C@H]([C@H](O)c3c(C4CC4)ccc4cncn34)CC2)cc1 (single isomer, unassigned) [Example D110a]	6400 nM	> 10000 nM	186 nM	16 nM
OC(c1c(C2CC2)ccc2cncn12)[C@H]1CC[C@H](c2ccc(OC3CCOCC3)cc2)CC1 (single isomer, unassigned) [Example D114c]	5600 nM	> 10000 nM	67 nM	17 nM
CC(C)c1ccc2cncn2c1[C@@H](O)[C@H]1CC[C@H](c2ccc(Cl)cc2)CC1 (single isomer, unassigned) [Example D115a]	10000 nM	> 10000 nM	83 nM	34 nM
O[C@H](c1c(C2CC2)ccc2cncn12)[C@H]1CC[C@H](c2cccc(Cl)c2)CC1 (single isomer, unassigned) [Example D116a]	9400 nM	> 10000 nM	43 nM	15 nM
O[C@H](c1c(C2CC2)ccc2cncn12)[C@H]1CC[C@H](c2ccc(Br)cc2)CC1 (single isomer, unassigned) [Example D118a]	7700 nM	> 10000 nM	306 nM	25 nM
O[C@H](c1c(C2CC2)ccc2cncn12)[C@H]1CC[C@H](c2ccc(-c3ccccc3)cc2)CC1 (single isomer, unassigned) [Example D119a]	5100 nM	> 10000 nM	344 nM	34 nM
O[C@H](c1c(C2CC2)ccc2cncn12)[C@H]1CC[C@H](c2ccc(Oc3ccccc3)cc2)CC1 (single isomer, unassigned) [Example D120a]	6700 nM	> 10000 nM	370 nM	80 nM
O[C@H](c1c(C2CC2)ccc2cncn12)[C@H]1CC[C@H](c2ccc3sccc3c2)CC1 (single isomer, unassigned) [Example D133a]	6700 nM	> 10000 nM	220 nM	21 nM
OC(c1c(C2CC2)ccc2cncn12)[C@H]1CC[C@H](c2ccc3ccsc3c2)CC1 (single isomer, unassigned) [Example D134a]	6100 nM	> 10000 nM	135 nM	15 nM
O[C@H](c1c(C2CC2)ccc2cncn12)[C@H]1CC[C@H](c2cccc3ccccc32)CC1 (single isomer, unassigned) [Example D135a]	11000 nM	> 10000 nM	32 nM	25 nM
O[C@H](c1c(C2CC2)ccc2cncn12)[C@H]1CC[C@H](c2ccc3ccccc3c2)CC1 (single isomer, unassigned) [Example D136a]	16000 nM	> 10000 nM	254 nM	21 nM
O[C@H](c1c(C2CC2)ccc2cncn12)[C@H]1CC[C@H](c2ccc(F)c3ccccc32)CC1 (single isomer, unassigned) [Example D137a]	7400 nM	> 10000 nM	36 nM	19 nM
O[C@H](c1c(C2CC2)ccc2cncn12)[C@H]1CC[C@H](c2ccnc3ccccc32)CC1 (single isomer, unassigned) [Example D140a]	11000 nM	> 10000 nM	38 nM	20 nM
O[C@H](c1c(C2CC2)ccc2cncn12)[C@H]1CC[C@H](c2cccc3ncccc32)CC1 (single isomer, unassigned) [Example D141a]	6100 nM	> 10000 nM	12 nM	15 nM
O[C@H](c1c(C2CC2)ccc2cncn12)[C@H]1CC[C@H](c2ccc(F)c(F)c2F)CC1 (single isomer, unassigned) [Example D145a]	13000 nM	> 10000 nM	277 nM	19 nM
O[C@H](c1c(C2CC2)ccc2cncn12)[C@H]1CC[C@H](c2cccc(F)c2)CC1 (single isomer, unassigned) [Example D156a]	12000 nM	> 10000 nM	31 nM	20 nM
